pEC50: −log10 of the molar value. ≈ marks a conversion by molar mass, not a printed value. Entries after “also recorded” stand apart in the source; their conditions may differ. Read-outs that look alike come from different tables or passages of the source.
Legend:
[1] = tested on: C57/BL6 WT mice; experiment: Contextual fear conditioning paradigm, memory formation in wild type mice; assay type: in vivo; conditions: for memory formation, tested 24 hours after training: 1 mg/kg for 10 days, WT mice, n=20 (FIG. 45B); for memory as measured by % freezing, contextual fear conditioning: HDAC inhibitor injected for 10 days, WT mice (FIG. 26)
Protocol: C57/BL6 WT mice were injected with vehicle or HDAC inhibitor for 10 days.
The total number of mice in each group is indicated in the bottom of each column of FIG. 45A. Mice were subsequently trained with contextual fear conditioning paradigm and tested 24 hours after training. […] After 10 day's dosing, mice were trained with contextual fear conditioning paradigm and tested 24 hours after training.

[2] = Solubility study of CI-994 HCl salt in saline; assay type: physicochemical
Protocol: 2. […] Shaken the tube manually. Observation: Solution becomes hazy. 4. Sonicated the above solution of step 3 for 5 minutes. Observation: Solution becomes white colored cloudy solution when 0.9% saline solution was added. […] 5. […] 6. Supernatant clear solution of step 5 was used for analysis.

[3] = tested on: CK-p25 mice; experiment: Local field potential recording in hippocampus CA1 of CK-p25 mice; assay type: in vivo; conditions: 1 mg/kg i.p. 10 days, recorded 10 days after treatment
[4] = tested on: mice; experiment: Extinction of fear memory under specific context; assay type: in vivo; conditions: 30 mg/kg one hour after retrieval, 3 days, n=10
Protocol: Mice were placed in a novel training box for 3 minutes and received tone for 30 seconds, followed by electrical shocks. […] Twenty-four hours after the second fear conditioning training, mice were exposed to the training chamber (context only) to retrieve the context dependant memory. […] One hour after injection, mice were placed back in the chamber for 3 min for the extinction training. The reactivation-extinction trials were performed once in each day for 3 days and freezing level was measured 5 days after the last training. (n=10 for each group).

[5] = oral dose level of less than 15 mg/m2 once a day, humans; cited from earlier work
[6] = tested on: mice; experiment: Three-day fear memory extinction trials with reminder shock; assay type: in vivo; conditions: 25 mg/kg
Protocol: Two groups of mice were trained in contextual fear conditioning for two times before a three-day-extinction trials. In each extinction day, mice were exposed to the training box without any shock for 3 minutes and returned back to their home-cage. […] The freezing behavior of each mouse in the training cage were monitored. To test the fear memory recovery, a reminder shock was given one hour after the last extinction trial.

[7] = tested on: HDAC2 overexpression mice
Protocol: Mice were trained using contextual fear conditioning paradigm on day 0.
For the memory reconsolidation paradigm, after the fear extinction training as described above, mice were housed in the home cage for one month. Mice were subsequently re-exposed to the conditioning box for 3 min, their freezing behavior measured.

[8] = tested on: HEK293 cells; experiment: Histone acetylation marks in HEK293 cells, Western blot; assay type: cell-based; conditions: whole HEK293 cells, 10 uM, 6 hour
[9] = tested on: TCF/LEF luciferase reporter gene; experiment: TCF/LEF luciferase reporter gene in human neural progenitor cells; assay type: cell-based; conditions: read-out: EC50 of TCF/LEF luciferase reporter activation
[10] = tested on: mice; experiment: Fear extinction under the reconsolidation paradigm; assay type: in vivo; conditions: for spontaneous recovery of fear memory, freezing one month after initial training: reconsolidation paradigm; for fear extinction, freezing time of first trial in each day: reconsolidation training 4 days, n=20
Protocol: Mice were trained in contextual fear conditioning paradigm with two shocks. The mice subsequently received the reconsolidation training during the following 4 days. […] One hour after injection, mice were placed back to the same context for 3 minutes. The freezing time of the first trial in each day was measured and plotted.
Spontaneous recovery of the fear memory were tested one month after the initial fear memory training. […] (students t-Test).

[11] = tested on: mice; experiment: Extinction of traumatic long-term memories; assay type: in vivo
Text: 30 days after training, mice were exposed to two 3-min extinction sessions per day in the same context as they were trained. […] 30 days after fear conditioning to both the context (context A) and the cue (3×0.8 mA shock for 2 sec paired with a tone) mice were first exposed to the cue alone in a different context (context B) than the one in which training occurred (context A), and subsequently to two 3-min extinction sessions per day in the same context as they were trained (context A). After the end of this extinction session, mice were again exposed to context B, and their memory tested.

[12] = tested on: Wild type C57/BL6 mice; experiment: Fear extinction under normal extinction paradigm; assay type: in vivo; conditions: DCS 15 mg/kg or CI-994 30 mg/kg, 21 minute extinction trial
Text: Wild type C57/BL6 mice were trained with contextual fear conditioning paradigms.

[13] = Maximal solubility of CI-994 free base in solvents, HPLC; assay type: physicochemical
[14] = tested on: WT C57/BL6 mice; experiment: Single dose before one 21 minute fear extinction trial; assay type: in vivo
Protocol: The mice were exposed to the fear-associated context for 21 minutes without pairing with shock. Freezing behavior was measured in the first 3 minutes and last 3 minutes during the extinction training, 24 hrs after extinction and 30 days after extinction. (n=20 for each group).

[15] = tested on: CK-p25 mice; experiment: Morris watermaze in CK-p25 mice; conditions: 1 mg/kg i.p. for 10 days
Protocol: All 3 groups of mice were trained with the standard Morris watermaze paradigm for 6 days. Mice were placed in the swimming pool for 60 seconds to search for the hidden platform in each trial. A total of 3 trials were performed in each day with 5 min inter-trial-intervals. The average time each group of mice spent to find the platform is plotted (escape latency).
The two groups of mice were trained in the Morris watermaze paradigm for 7 days as described above. On day 8, platform was removed and mice were tested for memory retrieval. The average time each group of mice spent in the target quadrant is plotted.

[16] = tested on: HDAC isoforms; experiment: Enzymatic inhibitory activity against known HDAC isoforms; assay type: biochemical, human; conditions: for time dependent enzymatic inhibitory activity against HDAC isoforms: 1-3 h preincubation
Text: Comparison was also made to other known memory enhancers and their ability to inhibit the same HDAC enzymes.

[17] = target concentration 5 mg/ml, 0.9% NaCl

COc1cc2c(cc1OC)C(=O)C(CC1CCN(Cc3ccccc3)CC1)C2 (stereo not drawn) [Aricept, reference compound]
memory formation, tested 24 hours after training [1]: did not show any effects in memory formation

CC(=O)Nc1ccc(C(=O)Nc2ccccc2N)cc1.Cl [BROAD-SAI-140]
improvement in solubility in aqueous solution versus CI-994 [2]: 35 × | chemical and solution stability, HPLC ([2]; saline solution): ≥ 2 h | Amount of drug dissolved in mg/ml of saline, 2 hours [2, 17]: 2.841 mg/mL | Amount of drug dissolved in mg/ml of saline, Initial [2, 17]: 2.852 mg/mL

CC(=O)Nc1ccc(C(=O)Nc2ccccc2N)cc1 [CI-994, 4-(acetylamino)-N-(2-aminophenyl)benzamide]
LFP oscillation power in area CA1 (theta and gamma band) [3]: significantly increased the oscillation power | freezing level 5 days after the last training [4]: enhanced extinction of fear memory under specific context | serum AUC, average (variance as percentage of the mean) [5]: 9500(62.7%) ng·hr/mL | serum Cmax, average (variance as percentage of the mean) [5]: 570(25.1%) ng/mL | decay of freezing time before and after injection, extinction day 1 [6]: faster decay of freezing time | decay of freezing time before and after injection, extinction day 2 [6]: faster decay of freezing time | extinction of fear memory, freezing during first 3-min-exposure in each day ([6]; N=8): much faster | freezing time on the third day ([6]; p<0.05): significantly less freezing time than the control group | freezing level 24 hours after the reminder shock ([6]; versus control group): No significant difference | freezing level after 5 extinction trials ([7]; HDAC2 overexpressing mice, 30 mg/kg i.p., 2 doses): 30% | freezing levels after one month of spontaneous recovery ([7]; HDAC2 overexpression mice): significantly reduced the freezing levels | fear memory extinction in WT mice ([7]; WT mice, 30 mg/kg i.p.): extinct significantly faster than the vehicle treated group | acetylation levels over DMSO controls (anti-acetyl H4K12) [8]: increased acetylation levels over DMSO controls | pEC50 [9]: ~5.15 | memory formation, tested 24 hours after training [1]: significantly increased memory formation | memory as measured by % time freezing ([1]; 1 mg/kg, every day and alternate day dosing schedule): equally effective | memory as measured by % time freezing ([1]; 30 mg/kg every day for 10 days): improves the memory of mice | memory as measured by % time freezing ([1]; 30 mg/kg, alternate day dosing schedule): equally effective | memory as measured by % time freezing, dose response ([1]; 10, 5, and 1 mg/kg every day for 10 days): efficacious as a memory enhancer at all doses | spontaneous recovery of fear memory, freezing one month after initial training [10]: significantly lower freezing level than the vehicle group | fear extinction, freezing time of first trial in each day [10]: significantly facilitated fear extinction | memories formed in a different context (context B) ([11]; 5 mg/kg (FIG. 49E)): did not affect memories formed in a context different from the extinction context | freezing level during extinction sessions 30 days after training ([11]; 5 mg/kg, p<0.001 (FIG. 49B)): significantly reduced the animals' freezing level | freezing levels 30 days after the last extinction trial ([11]; 5 mg/kg, p<0.001 (FIG. 49C)): still show reduced freezing levels compared to vehicle-treated ones | freezing level in the extinction context (context A) ([11]; 5 mg/kg, p<0.05 (FIG. 49F)): exclusively reduced the animals' freezing level in the context in which the extinction had occurred | freezing levels 30 days after last extinction trials, extinguished context ([11]; 5 mg/kg, p<0.05 (FIG. 49G)): still show reduced freezing levels compared to vehicle-treated ones | freezing 24 hours after the extinction training [12]: showed significant reduction in freezing | Conc. in Vehicles, DMA ([13]; maximal solubility, free base): 246040 µg/mL | Conc. in Vehicles, DMSO ([13]; maximal solubility, free base): 266150 µg/mL | Conc. in Vehicles, EtOH ([13]; maximal solubility, free base): 2120 µg/mL | Conc. in Vehicles, NMP ([13]; maximal solubility, free base): 243280 µg/mL | Conc. in Vehicles, Saline ([13]; maximal solubility, free base, 0.9% NaCl, at least 2 h): 80 µg/mL | solubility at 2 h ([13]; saline (0.9% NaCl), saline or isotonic, read-out: Conc. in Vehicles, Saline): 80 µg/mL (≈ 297 µM) | spontaneous recovery of fear memory 30 days after extinction training ([14]; one dose i.p. 30 mg/kg): not evident | freezing behavior after single extinction exposure ([14]; one dose i.p. 30 mg/kg one hour before 21 minute extinction trial, n=20): effective reduction in freezing | time spent in the target quadrant, memory retrieval on day 8 [15]: rescued the memory retrieval deficits | escape latency (time to find hidden platform) ([15]; 6 days training): showed similar learning curve as control mice | enzymatic inhibitory activity against HDAC isoforms (inhibition profile) [16]: primarily Class I HDAC inhibitors | time dependent enzymatic inhibitory activity against HDAC isoforms [16]: primarily Class I HDAC inhibitors | enzymatic inhibitory activity against HDAC isoforms (inhibition profile) ([16]; listed as CI994): inhibits HDAC1, 2 and 3

N[C@@H]1CONC1=O [DCS, D-cycloserine, reference compound]
spontaneous recovery of fear memory, freezing one month after initial training [10]: no significant difference comparing to the vehicle group | fear extinction, freezing time of first trial in each day [10]: but not DCS, significantly facilitated fear extinction | freezing 24 hours after the extinction training [12]: showed significant reduction in freezing

Nc1ccccc1NC(=O)c1ccc(CNc2nccc(-c3cccnc3)n2)cc1 [MGCD0103, reference compound]
memory as measured by % freezing, contextual fear conditioning [1]: not efficacious | memory as measured by % freezing, contextual fear conditioning ([1]; listed as MGC-D0103): did not result in improved cognition

Nc1ccccc1NC(=O)c1ccc(CNC(=O)OCc2cccnc2)cc1 [MS-275, reference compound]
memory as measured by % freezing, contextual fear conditioning [1]: not efficacious; also recorded: did not result in improved cognition

O=C(CCCCCCC(=O)Nc1ccccc1)NO [SAHA, reference compound]
acetylation levels over DMSO controls (anti-acetyl H4K12) [8]: increased acetylation levels over DMSO controls

Nc1ccc(C(=O)Nc2ccccc2N)cc1 [dinaline]
enzymatic inhibitory activity against HDAC isoforms (inhibition profile) [16]: primarily Class I HDAC inhibitors | time dependent enzymatic inhibitory activity against HDAC isoforms [16]: primarily Class I HDAC inhibitors

Reference: patent publication US8841346B2 (Massachusetts Institute of Technology, priority 2009, dated 2014)
